In ChEMBL document CHEMBL1201862, “PubChem BioAssay data set” (2004):
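Interpolation was linear, between the two tested concentrations surrounding the appropriate level; five concentrations were tested over 48 hours in 96-well plates. At the GI50, growth is halved.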 Activity calls are given as the source filed them. Rule as the data show it: active = GI50 up to about 1.1 µM and inactive = higher.

Experiments:
Experiment in all cases: DTP human tumour cell line panel, 48 h
786-0 = test system: 786-0
ACHN = test system: ACHN
CAKI-1 = test system: CAKI-1
HCT-116 = test system: HCT-116
HOP-62 = test system: HOP-62
HOP-92 = test system: HOP-92
IGROV-1 = test system: IGROV-1
MCF7 = test system: MCF7
MOLT-4 = test system: MOLT-4
NCI-H226 = test system: NCI-H226
NCI-H23 = test system: NCI-H23
NCI-H460 = test system: NCI-H460
NCI-H522 = test system: NCI-H522
SF-268 = test system: SF-268
SF-295 = test system: SF-295
SN12C = test system: SN12C
TK-10 = test system: TK-10
U-251 = test system: U-251
UO-31 = test system: UO-31
SK-MEL-2 = test system: SK-MEL-2

| Compound | GI50 (786-0) | GI50 (ACHN) | GI50 (CAKI-1) | GI50 (HCT-116) | GI50 (HOP-62) | GI50 (HOP-92) | GI50 (IGROV-1) | GI50 (MCF7) | GI50 (MOLT-4) | GI50 (NCI-H226) | GI50 (NCI-H23) | GI50 (NCI-H460) | GI50 (NCI-H522) | GI50 (SF-268) | GI50 (SF-295) | GI50 (SN12C) | GI50 (TK-10) | GI50 (U-251) | GI50 (UO-31) | GI50 (SK-MEL-2) |
| --- | --- | --- | --- | --- | --- | --- | --- | --- | --- | --- | --- | --- | --- | --- | --- | --- | --- | --- | --- | --- |
| COc1cccc(/C=N/NC(=O)CN(C)C)c1O | > 100 µM (inactive) | > 100 µM (inactive) | > 100 µM (inactive) | > 100 µM (inactive) | > 100 µM (inactive) | > 100 µM (inactive) | > 100 µM (inactive) | > 100 µM (inactive) | > 100 µM (inactive) | 72.8 µM (inactive) | > 100 µM (inactive) | > 100 µM (inactive) | > 100 µM (inactive) | > 100 µM (inactive) | > 100 µM (inactive) | > 100 µM (inactive) | > 100 µM (inactive) | > 100 µM (inactive) | > 100 µM (inactive) |  |
| Cc1ccc(C2=Nn3c(nc4sc(-c5ccccc5)cc4c3=O)SC2)cc1 | > 100 µM (inactive) | > 100 µM (inactive) | > 100 µM (inactive) | > 100 µM (inactive) | > 100 µM (inactive) | > 100 µM (inactive) | > 100 µM (inactive) | > 100 µM (inactive) | > 100 µM (inactive) | > 100 µM (inactive) | > 100 µM (inactive) | > 100 µM (inactive) | > 100 µM (inactive) | > 100 µM (inactive) | > 100 µM (inactive) | > 100 µM (inactive) | > 100 µM (inactive) | > 100 µM (inactive) | > 100 µM (inactive) |  |
| COc1cc2c3c(c4cc(OC)c(OC)cc4c2cc1OC)C(=O)C1CCC(=O)N1C3 (stereo not given) |  | 5.86 µM (inactive) | 8.75 µM (inactive) |  | 13.6 µM (inactive) | 12 µM (inactive) | 2.43 µM (inactive) | 11.9 µM (inactive) | 3.27 µM (inactive) |  | 55 µM (inactive) | 13.8 µM (inactive) | 3.1 µM (inactive) | 22.2 µM (inactive) | 21.6 µM (inactive) |  | 12.8 µM (inactive) | 26.3 µM (inactive) |  | 41.9 µM (inactive) |
| c1csc(C(NC2=NCCO2)C2CC2)c1 (stereo not given) |  | > 100 µM (inactive) | > 100 µM (inactive) | > 100 µM (inactive) | > 100 µM (inactive) | 93.5 µM (inactive) | > 100 µM (inactive) | > 100 µM (inactive) | > 100 µM (inactive) | > 100 µM (inactive) | > 100 µM (inactive) | > 100 µM (inactive) | > 100 µM (inactive) |  | > 100 µM (inactive) | > 100 µM (inactive) |  | > 100 µM (inactive) | > 100 µM (inactive) | > 100 µM (inactive) |
| CC(=O)NCCC1CN(C(=O)/C=C\C#C[Si](C)(C)C)c2ccccc21 (stereo not given) |  | 26.6 µM (inactive) | 13.8 µM (inactive) | > 10 µM (inactive) |  | 41.1 µM (inactive) | 14.1 µM (inactive) | 5.36 µM (inactive) | 17.3 µM (inactive) | 14.9 µM (inactive) | 11.9 µM (inactive) | 28.8 µM (inactive) | 10.5 µM (inactive) | 48.2 µM (inactive) | 21.5 µM (inactive) | 37.3 µM (inactive) | 23 µM (inactive) | > 10 µM (inactive) | 26.9 µM (inactive) | 14 µM (inactive) |
| CCOC(=O)c1cc2c(ccc3cc(C(=O)OCC)[nH]c32)[nH]1 | 15.6 µM (inactive) | 55.5 µM (inactive) | 29 µM (inactive) | 41.9 µM (inactive) | 21.7 µM (inactive) | 78.7 µM (inactive) | 53.7 µM (inactive) | 50.2 µM (inactive) | 35.8 µM (inactive) |  | 27.2 µM (inactive) | 43.9 µM (inactive) | 67.1 µM (inactive) | 17.1 µM (inactive) | 60.7 µM (inactive) | 25.9 µM (inactive) | 50.2 µM (inactive) | 6.15 µM (inactive) | 48.6 µM (inactive) | > 100 µM (inactive) |
| COc1ccc(N2C(=O)/C(=C\c3ccccc3)SC2c2cc(OC)c(OC)c(OC)c2)cc1 (stereo not given) |  | 60.3 µM (inactive) | 46.8 µM (inactive) | 32.1 µM (inactive) | 65.8 µM (inactive) | > 100 µM (inactive) |  | 38.4 µM (inactive) | 65.6 µM (inactive) | > 100 µM (inactive) | 92.7 µM (inactive) |  | 14.2 µM (inactive) | > 100 µM (inactive) | > 100 µM (inactive) | > 100 µM (inactive) | > 100 µM (inactive) | 43.9 µM (inactive) | 50.4 µM (inactive) | 30.4 µM (inactive) |
| Cc1ccc(NC=O)c(-c2c(N)[nH]c(=S)[nH]c2=O)c1 | > 100 µM (inactive) | 60.7 µM (inactive) | > 100 µM (inactive) | > 100 µM (inactive) | > 100 µM (inactive) | > 100 µM (inactive) | > 100 µM (inactive) | > 100 µM (inactive) | > 100 µM (inactive) | > 100 µM (inactive) | > 100 µM (inactive) |  | > 100 µM (inactive) | > 100 µM (inactive) | > 100 µM (inactive) | > 100 µM (inactive) | > 100 µM (inactive) |  | > 100 µM (inactive) | > 100 µM (inactive) |
| O=C(NCCCCCCNCc1cccc2ccccc12)Nc1cccc2ccccc12 | > 100 µM (inactive) | > 100 µM (inactive) | > 100 µM (inactive) | > 100 µM (inactive) | > 100 µM (inactive) | > 100 µM (inactive) | > 100 µM (inactive) | > 100 µM (inactive) | > 100 µM (inactive) |  | > 100 µM (inactive) | > 100 µM (inactive) | > 100 µM (inactive) | > 100 µM (inactive) | > 100 µM (inactive) | > 100 µM (inactive) | > 100 µM (inactive) | > 100 µM (inactive) | 51.6 µM (inactive) | > 100 µM (inactive) |
| CC1NC(=O)CC(c2ccccc2)N(N=O)C1c1ccccc1 (stereo not given) |  |  | 37.1 µM (inactive) | 37.1 µM (inactive) | 28.8 µM (inactive) | 16.9 µM (inactive) | 42.1 µM (inactive) | 44.3 µM (inactive) | 31.4 µM (inactive) | 58.5 µM (inactive) | 36.2 µM (inactive) | 25.8 µM (inactive) | 22.1 µM (inactive) | 31.8 µM (inactive) | 30.7 µM (inactive) | 49.5 µM (inactive) |  | 39.6 µM (inactive) | 50.8 µM (inactive) | 39.5 µM (inactive) |
| O=S(=O)(O)c1cc(/N=[N+](\[O-])c2cc(S(=O)(=O)O)c3ccccc3c2)cc2ccccc12 | > 100 µM (inactive) | > 100 µM (inactive) | 23.1 µM (inactive) | > 100 µM (inactive) | 48 µM (inactive) | > 100 µM (inactive) | 33.9 µM (inactive) | 30.1 µM (inactive) |  | > 100 µM (inactive) | 25.5 µM (inactive) | > 100 µM (inactive) | 26.2 µM (inactive) | > 100 µM (inactive) | 35.6 µM (inactive) | 23.6 µM (inactive) | > 100 µM (inactive) | 60.4 µM (inactive) | 20.9 µM (inactive) | 24.7 µM (inactive) |
| C#C/C=C\CCCC/C=C\C#CC#CCCCC#CC#C[C@H](COS(=O)(=O)O)OS(=O)(=O)O | > 100 µM (inactive) | > 100 µM (inactive) | > 100 µM (inactive) | > 100 µM (inactive) | > 100 µM (inactive) | > 100 µM (inactive) | > 100 µM (inactive) | > 100 µM (inactive) | > 100 µM (inactive) |  | > 100 µM (inactive) | > 100 µM (inactive) | > 100 µM (inactive) | > 100 µM (inactive) | > 100 µM (inactive) | > 100 µM (inactive) | > 100 µM (inactive) | > 100 µM (inactive) | 72.4 µM (inactive) | > 100 µM (inactive) |
| COC(=O)CC1CN(C(=O)OCc2ccccc2)C(C)(C)O1 (stereo not given) | > 100 µM (inactive) | > 100 µM (inactive) | > 100 µM (inactive) | > 100 µM (inactive) |  | 94.6 µM (inactive) | 82.2 µM (inactive) | > 100 µM (inactive) | 80.2 µM (inactive) | 2 µM (inactive) | 28.8 µM (inactive) | > 100 µM (inactive) | 5.46 µM (inactive) |  | > 100 µM (inactive) | > 100 µM (inactive) | 56.9 µM (inactive) | > 100 µM (inactive) | 38.6 µM (inactive) | > 100 µM (inactive) |
| CN(C)CCNc1c2ccccc2c2c3c(cccc13)C(=O)N(CCN(C)C)C2=O |  |  | 0.423 µM (active) | 0.0254 µM (active) | 1.67 µM (inactive) | 0.138 µM (active) | 0.0968 µM (active) | 0.0416 µM (active) | 0.0625 µM (active) | 1.82 µM (inactive) | 0.0904 µM (active) | 0.0448 µM (active) | 0.123 µM (active) | 0.22 µM (active) | 0.069 µM (active) | 0.0883 µM (active) |  | 0.121 µM (active) | 1.61 µM (inactive) | 0.188 µM (active) |
| N#Cc1ccccc1NC(=O)C(=O)c1c(O)c2ccccc2oc1=O | > 100 µM (inactive) | > 100 µM (inactive) | > 100 µM (inactive) | > 100 µM (inactive) | > 100 µM (inactive) | > 100 µM (inactive) | > 100 µM (inactive) | > 100 µM (inactive) |  | > 100 µM (inactive) | > 100 µM (inactive) | > 100 µM (inactive) | > 100 µM (inactive) | > 100 µM (inactive) | > 100 µM (inactive) | > 100 µM (inactive) | > 100 µM (inactive) | > 100 µM (inactive) | > 100 µM (inactive) | > 100 µM (inactive) |
